# Values quoted from earlier work as cited in paper PMC6482886 (Chemical Science, 2019).
# Tests used:
# hDMX = biological target: T1, hDMX (Homo sapiens, UniProt O15151)
# T1 sequence (O15151 1-392): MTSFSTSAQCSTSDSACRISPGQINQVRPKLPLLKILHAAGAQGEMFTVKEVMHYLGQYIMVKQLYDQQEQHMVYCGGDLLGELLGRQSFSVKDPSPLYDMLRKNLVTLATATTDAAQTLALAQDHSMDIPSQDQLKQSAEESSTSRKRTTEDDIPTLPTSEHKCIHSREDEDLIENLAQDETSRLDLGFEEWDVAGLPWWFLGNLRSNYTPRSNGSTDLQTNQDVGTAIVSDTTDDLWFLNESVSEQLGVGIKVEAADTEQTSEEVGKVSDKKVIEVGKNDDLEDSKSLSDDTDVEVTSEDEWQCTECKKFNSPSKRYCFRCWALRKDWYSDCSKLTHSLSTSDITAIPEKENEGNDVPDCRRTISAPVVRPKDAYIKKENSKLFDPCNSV
binding affinity to hDMX compared with p53 (hDMX),SMILES,cellular IC50 / cellular activity reported in the literature
–,N#Cc1c2ccc(N)cc2nc2cc(N)ccc12 [CTX1],tens to hundreds of micromolar range
less affinity to hDMX than p53,CCOc1cc(/C=C2/C(=O)N(c3ccccc3)N=C2C)cc(Cl)c1OCC(=O)OC [SJ-172550],–
